Reference: patent US8592446B2, “[1,10]-phenanthroline derivatives for the treatment of neurodegenerative or haematological diseases” (Noscira, S.A., priority 2007, dated 2013)

Experiments:
Type in all cases: cell-based
[1] = tested on: SH-SY5Y human neuroblastoma cells; assay: Toxicity: LDH activity release in SH-SY5Y cells; settings: 24 h; for Maximum concentration tested for toxicity: increasing concentrations from 1 μM up to 1 mM; for Toxic at maximum concentration tested (Yes/No): at 10 μM
Description: The potential effects on cell viability of the assayed compounds are assayed in SH-SY5Y human neuroblastoma cells, by quantification of Lactate dehydrogenase (LDH) activity release. SH-SY5Y human neuroblastoma cells are seeded into 96-well culture plates at 10^4 cells/well. The medium is then removed and the cells incubated with different concentrations of the compounds during 24 h. The compounds are tested at increasing concentrations starting from 1 μM, in fresh culture medium, in order to find the minimum concentration at which the compounds are toxic, up to a maximum of 1 mM. After 24 h, the medium is removed and cells attached to the bottom of the well are lysed by adding 50 μl of Krebs-Hepes; Triton X-100 1% during 5 minutes at room temperature. For LDH release quantification, the Roche cytotoxicity detection kit (Cat.
No. 11 644 793 001) is used. The LDH activity is measured by its absorbance at 492 nm with reference wavelength 620 nm.
In Table 1, for each compound the maximum concentration at which toxicity was tested is indicated in the second column. In the third column, it is indicated whether at this maximum concentration the compound was toxic or not. All the compounds, with the exception of Compound 3, resulted non-toxic at the concentration for which activity was found, in most of the cases even at a 1000-fold concentration. Thus, the compounds may be considered non-toxic.

[2] = tested on: SH-SY5Y human neuroblastoma cells; assay: Protection against hydrogen peroxide-induced cell death (LDH); settings: Homo sapiens, SH-SY5Y, compound 1 h before H2O2 100 μM, 24 h, read-out: Protect. H2O2 (minimum concentration for which protection was determined)
Description: The aim of this assay is to determine the neuroprotective effect of the compounds of formula (I), when human neuroblastoma cells are exposed to oxidative stress induced by hydrogen peroxide, which is highly deleterious to the cell and its accumulation causes oxidation of cellular targets such as DNA, proteins, and lipids leading to mutagenesis and cell death.
SH-SY5Y human neuroblastoma cells are seeded into 96-well culture plate at a density of 10^4 cells/well. Cells are exposed to different concentrations of the compound one hour before the treatment with H2O2 100 μM during 24 h. 5 mM N-acetylcysteine (NAC), a known anti-oxidant agent was used as a positive control, and preincubated 1 hour before the treatment with H2O2. After 24 h, the medium is removed and cells attached to the bottom of the well are lysed by adding 50 μl of Triton X-100 1% in Krebs-Hepes during 5 minutes at room temperature. For LDH release quantification, Roche cytotoxicity detection kit (Cat. No. 11 644 793 001) was used.

[3] = tested on: SH-SY5Y human neuroblastoma cells; assay: Protection against 6-OHDA-induced cell death, condition A (10% foetal bovine serum); settings: preincubated 2 hours, 6-OHDA 75 μM 16 hours, read-out: Protect. 6-OHDA (+ FBS) (minimum concentration with neuroprotective effect)
Text: (§1) The aim of this experiment is to determine the protective effect of the compounds of formula (1) against the toxicity caused by 6-OHDA. This toxin induces a cell death similar to which occurs in Parkinson's disease, destroying dopaminergic neurons (“MPTP and 6-hydroxydopamine-induced neurodegeneration as models for Parkinson's disease: neuroprotective strategies”; Grunblatt E, et al.; J Neurol. 2000 Apr; 247 Suppl 2:II95-102).
(§2) Two or three days before the experiment, the SH-SY5Y human neuroblastoma cells are seeded into 96-well culture plate at a density of 10^4 cells/well. Cells are exposed to the treatment with 6-OHDA and, finally, cell death is measured by LDH quantification. As positive control we used NAC.
• A) NAC and the compound of formula (I) are preincubated during 2 hours before the treatment with 6-OHDA 75 μM during 16 hours. The assay is performed in medium containing 10% Foetal bovine serum.
(§3) For each compound the minimum concentration of compound of formula (I) at which a neuroprotective effect is shown.

[4] = tested on: SH-SY5Y human neuroblastoma cells; assay: Protection against 6-OHDA-induced cell death, condition B (no fetal bovine serum); settings: preincubated 1 hour, 6-OHDA 50 μM 24 hours, read-out: Protect. 6-OHDA (−FBS) (minimum concentration with neuroprotective effect)
Text: as §1, §2
• B) NAC and the compound of formula (I) are preincubated during 1 hour before the treatment with 6-OHDA 50 μM during 24 hours. The assay is performed in a medium without any fetal bovine serum.
as §3

SH-SY5Y cells = assay: Neuroprotection against Aβ25-35 toxicity (LDH assay); settings: Homo sapiens, pre-treated 1 hour, 200 μM Aβ25-35 24 hours, read-out: Protect. beta-Amyloid25-35 (minimum concentration showing neuroprotection)
Description: In order to evaluate potential neuroprotection of compounds, SH-SY5Y cells, cultured in 96-well plates, were pre-treated for 1 hour with the compound at different concentrations and then exposed 24 hours to 200 μM Aβ25-35 (Neosystem) to induce extensive oxidative stress and cell death. The ability of the compound of protecting against this toxicity is then evaluated by measuring intracellular LDH, using the colorimetric LDH assay.
It is widely accepted that the neurotoxic activity of Aβ resides within amino acids 25-35 (see e.g. Yankner B A et al., (1990) Neurotrophic and neurotoxic effects of amyloid β protein: reversal by tachykinin neuropeptides; Science 250:279-282).

[5] = tested on: Aβ (1-40) secretion by CHO7W cells (stably transfected with human APP751 wt cDNA); assay: Inhibition of Aβ(1-40) secretion (ELISA, cellular supernatants); settings: Aβ 1-40 ELISA
Text: To quantitate Aβ secretion ELISA-based method was used. The assay consists in detection of antigen by selective monoclonal anti-Aβ-antibodies at two different epitopes forming a “Sandwich-complex”, that is detected by colorimetric measure due to the binding of a secondary antibody conjugated with peroxidase that catalyses the conversion of a substrate or chromogen, TMB, into a coloured product, directly proportional to the peptide quantity in the sample. The Aβ production has been analyzed by ELISA, using a colorimetric commercial kit: Immunoassay Kit Human β Amyloid 1-40 (Biosource).
Aβ (1-40) were quantified from cellular supernatants. An APP-transfected cell line has been employed for the experiments: CHO7W (stably transfected with human APP751 wt cDNA). The cells were grown in a culture medium consisting of DMEM supplemented with 2% Fetal bovine serum, 1% penicillin-streptomycin, 1% L-glutamine and 200 μg/ml G418. Cells are seeded in 96-well culture microplate, at 5000 cells/well and treatment with different compounds at different concentrations is performed 24 hour after seeding.
OM99-2 (H-5108, Bachem), a BACE inhibitor, was used as Aβ secretion reduction positive control in all the Aβ secretion studies. The cells were treated with this compound at 3 μM concentration, culture media were collected at 24 hours.

SMILES: O=C(O)CSc1cc(C=NO)nc2c1ccc1cccnc12 [Compound 16, [2-(Hydroxyimino-methyl)-[1,10]phenanthrolin-4-ylsulfanyl]-acetic acid]
- Maximum concentration tested for toxicity [1]: 10 µM
- Toxic at maximum concentration tested (Yes/No) [1]: Yes
- minimal effective concentration [2]: 0.05 µM
- minimal effective concentration [3]: 0.5 µM
- minimal effective concentration [4]: 10 µM
- minimal effective concentration (SH-SY5Y cells): 5 µM
- minimal effective concentration ([5]; Homo sapiens, CHO-7W, read-out: Inhibition secretion beta-amyloid (minimum concentration)): 1 µM

SMILES: NCCOc1cc(/C=N/O)nc2c1ccc1cccnc12 [Compound 9, 4-(2-Amino-ethoxy)-[1,10]phenanthroline-2-carbaldehyde oxime]
- Maximum concentration tested for toxicity [1]: 10 µM
- Toxic at maximum concentration tested (Yes/No) [1]: No
- minimal effective concentration [2]: 5 µM
- minimal effective concentration [3]: 5 µM
- minimal effective concentration [4]: 5 µM
- minimal effective concentration (SH-SY5Y cells): 5 µM
- Inhibition secretion beta-amyloid (minimum concentration) [5]: 10 mM
